“Also recorded” adds a separate entry of the source.
How the values were obtained:
[1] = system: human peripheral blood T cells; experiment: IL-2 production assay in T cells (ELISA); assay type: cell-based
Procedure: IL-2 production. T cells were cultured and activated by 10 or 50 μM Sp-8-Br-cAMPs (a cAMP agonist) for 15 minutes before the T cells were activated by anti-CD3/anti-CD28 beads (Dynal) for 20 hours. Cell free supernatants were harvested and stored at −80° C. until analsysed. The IL-2 levels were determined by Elisa (R & D Systems, Europe Ltd., UK):
IL-2 production Assay. Primary T cells were stimulated or not with anti-CD3/anti-CD28 coated beads (Dynal, cat. no. 111.31) for 20 hours, thereafter supernatants were harvested and the concentration of IL-2 was assessed by ELISA (R&D Systems, cat. no D2050). When used, 8-CPT-cAMP was added for 15 minutes before CD3/CD28 treatment.
To examine the effect of MEME3 on cytokine production, IL-2 levels in medium from human peripheral blood T cells treated with MEME3-Arg11 were measured by ELISA. First, cells were treated with MEME3-Arg11 for 12 hours, thereafter the PKA inhibitory pathway was activated by 10 or 50 μM Sp-8-Br-cAMPs (a cAMP agonist) for 15 minutes before the T cells were activated by CD3/CD28 stimulation (FIG. 21).

[2] = molecular target: PKA-RIα (Homo sapiens, UniProt P10644); experiment: Immunofluorescence of PKA-RIα localisation in human T cells; assay type: cell-based; set-up: endogenous in cells; host or cells: human peripheral blood CD3+ T cells; conditions: 5 μM
Procedure: Immunofluorescence analysis of cells was performed as previously described (Collas, P. et al., 1996, J. Cell Biol. 135, 1715-1725). RI was detected by using an anti-RI monoclonal antibody (Transduction Laboratories) as a primary antibody at a […] and Alexa-488 as a secondary antibody (1:600, Goat anti Mouse IgGs, Molecular Probes). Immunofluorescence was performed on Y1 cells attached to collagen/fibronectin coated coverslips. Mitochondria were stained using MitoTracker Red CMXRos (Molecular Probes) in fresh medium with incubation at 37° C. for 30 min prior to cell fixation. All cells were washed in PBS, fixed with 3% paraformaldehyde and permeabilised using 0.1% Triton X-100. Proteins were blocked in 2% BSA/PBST prior to antibody labeling. Primary and secondary antibodies were used at a 1:200 dilution in BSA/PBST and incubated for 30 min. DNA was counterstained using TO-PRO 3 (Molecular Probes) at a concentration of 1 μM. […] Alternatively, fluorescently labeled cells were examined using a Leica TCS SP1 confocal fluorescence microscope (Leica, Heidelberg, Germany) equipped with an Ar (488 nm) and two He/Ne (543 and 633 nm) laser lines. […]
Isolated human peripheral blood T cells were treated with MEME3-Arg11 peptide at different concentrations, and the location of PKARIα determined by immunofluorescence.

[3] = molecular target: T1, RI (A98S) (Bos taurus, UniProt P00514, A98S); experiment: R-overlay (solid-phase binding) of 32P-labelled RI on membrane-synthesized peptides; set-up: species or system bovine
T1 construct: made in house; host or cells: E. coli BL21 (B121 [sic])
T1 sequence (P00514 whole entry A98S): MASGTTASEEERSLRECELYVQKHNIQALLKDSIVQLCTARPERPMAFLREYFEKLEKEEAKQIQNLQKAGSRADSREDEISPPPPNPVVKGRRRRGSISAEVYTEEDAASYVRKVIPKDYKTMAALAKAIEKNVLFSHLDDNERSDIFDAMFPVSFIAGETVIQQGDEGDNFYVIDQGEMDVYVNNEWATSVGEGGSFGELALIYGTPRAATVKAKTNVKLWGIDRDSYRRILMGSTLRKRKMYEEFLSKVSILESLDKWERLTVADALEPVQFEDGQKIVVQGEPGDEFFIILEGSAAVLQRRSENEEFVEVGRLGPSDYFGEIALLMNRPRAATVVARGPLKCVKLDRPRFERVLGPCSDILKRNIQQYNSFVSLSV
Procedure: Autospot Peptide Array. Peptide arrays were synthesized on cellulose paper by using an Autospot Robot ASP222 (ABiMED, Langenfeld, Germany) as described (Frank, R., 1992, Tetrahedron 48, 123-132) or Multipep automated peptide synthesizer (INTAVIS Bioanalytical Instruments AG, Koeln, Germany) as described (Frank, R., 1992, Tetrahedron 48, 123-132).
R-overlay. R-overlays were conducted as described, using ^32P-labeled recombinant murine RII (Hausken, Z. E., et al., 1998 in Protein Targeting Protocols, ed. Clegg, R. A. (Humana, Totowa, N.J.), Vol. 88, pp. 47-64) or recombinant bovine RI (A98S) or by cold RI-overlay where bound RIα was detected by Western blot. Cold RI-overlay was performed by incubating the membranes with 250 nM RI overnight at 4° C., then the membranes were washed five times in TBST for 5 min. Detection of RI was performed using an anti-RI rabbit polyclonal antibody (Santa Cruz) at a concentration of 0.2 μg/μl for 1 hour at 4° C. Then the membranes were washed five times for 5 minutes in PBS followed by incubation with HRP-conjugated anti-rabbit IgGs (1:5000) for 1 hour at 4° C. The membranes were washed in PBS as described above before detection by Supersignal West Dura Extended Duration Substrate (Pierce).
Densitometric analysis. The densitometric analysis was performed using Scion Image (www.scioncorp.com) (Scion Coorperation, Mo., USA) or Quantity One version 4.5.0, (BioRad).

| Molecule | increase in IL-2 production ([1]; 10 μM, relative to untreated T cells) | IL-2 levels ([1]; 12 hours peptide, Sp-8-Br-cAMPs, CD3/CD28 stimulation) | displacement of RI from T cell membranes / cell periphery [2] | competition of RI-binding to membrane-bound MEME3 ([3]; 500 nM peptide in solution) | affinity for RI compared to that of PDSM ([3]; densitometry of autoradiographs, n=3, higher) | RI binding (RI-32P-overlay, autoradiography) ([3]; peptides on membrane, qualitative) |
| --- | --- | --- | --- | --- | --- | --- |
| LEQYANQLADQIIKEATERRRRRRRRRrr [MEME3-Arg11] | 2.5 fold | increased in samples treated with MEME3-Arg11 in a concentration-dependent manner | Displacement of RI from T cell membranes was observed; also recorded: displaced and delocalized |  |  |  |
| CC[C@H](C)[C@H](NC(=O)[C@H](CCC(N)=O)NC(=O)[C@H](CC(=O)O)NC(=O)[C@H](C)NC(=O)[C@H](CC(C)C)NC(=O)[C@H](CCC(N)=O)NC(=O)[C@H](CC(N)=O)NC(=O)[C@H](C)NC(=O)[C@H](Cc1ccc(O)cc1)NC(=O)[C@H](CCC(N)=O)NC(=O)[C@H](CCC(=O)O)NC(=O)[C@@H](N)CC(C)C)C(=O)N[C@H](C(=O)N[C@@H](CCCCN)C(=O)N[C@@H](CCC(=O)O)C(=O)N[C@@H](C)C(=O)N[C@H](C(=O)N[C@@H](CCC(=O)O)C(=O)N[C@@H](CCCCNC(=O)c1ccc2c(c1)C(=O)OC21c2ccc(O)cc2Oc2cc(O)ccc21)C(N)=O)[C@@H](C)O)[C@@H](C)CC [MEME3] |  |  |  | competed the RI-binding | 1.9 times | bound with high affinity to RIα |

— US20080248008A1, “Inhibitors of Protein Kinase a Anchoring” (priority 2004, published 2008)
